# Experiments:
# [1] = target: Macrophage colony-stimulating factor 1 receptor (Homo sapiens, UniProt P07333); assay: Inhibition of human full length His-tagged CSF1R expressed in baculovirus by Z'Lyte assay
# GISTT1 [2] = assay: Antitumor activity against human GISTT1 cells xenografted in nu/nu mouse assessed as tumor growth inhibition at 100 mg/kg, ip administered daily for 28 days relative to control; format: functional; conditions: 672 h, read-out: TGI
# [3] = target: Platelet-derived growth factor receptor alpha (Homo sapiens, UniProt P16234); assay: Inhibition of PDGFRalpha (unknown origin) using FAM-labeled peptide as substrate preincubated for 10 mins followed by substrate addition in presence of ATP by mobility shift assay
# [4] = AUC (0 to infinity) in Sprague-Dawley rat at 100 mg/kg, ip up to 24 hrs post dose by LC/MS/MS analysis; format: ADME, organism-based; parameters: dose 100 mg/kg, time infinity, route intraperitoneal; conditions: in vivo
# [5] = target: Mast/stem cell growth factor receptor Kit (Homo sapiens, UniProt P10721)
# Description: Inhibition of cKIT (unknown origin) using FAM-labeled peptide as substrate preincubated for 10 mins followed by substrate addition in presence of ATP by mobility shift assay
# K562 = assay: Antiproliferative activity against human K562 cells assessed as cell growth inhibition after 72 hrs by cell titer-glo assay; format: functional; conditions: K562, 72 h
# [6] = MRT (0 to infinity) in Sprague-Dawley rat at 100 mg/kg, ip up to 24 hrs post dose by LC/MS/MS analysis; format: ADME, organism-based; conditions: in vivo
# [7] = target: Receptor-type tyrosine-protein kinase FLT3 (Homo sapiens, UniProt P36888); assay: Inhibition of human His-tagged FLT3 (564 to 958 residues) expressed in baculovirus by ELISA
# [8] = system: Mast/stem cell growth factor receptor Kit (Homo sapiens), P10721 [L576P]
# Description: Inhibition of TEL-fused cKIT L576P mutant (unknown origin) expressed in mouse BAF3 cells assessed as cell growth inhibition after 72 hrs by cell titer-glo assay
# [9] = Antiproliferative activity against human GIST48B cells assessed as cell growth inhibition after 72 hrs by cell titer-glo assay; format: functional
# [10] = system: Mast/stem cell growth factor receptor Kit (Homo sapiens), P10721 [T670I]
# Description: Inhibition of TEL-fused cKIT T670I mutant (unknown origin) expressed in mouse BAF3 cells assessed as cell growth inhibition after 72 hrs by cell titer-glo assay
# [11] = target: Vascular endothelial growth factor receptor 3 (Homo sapiens, UniProt P35916); assay: Inhibition of human GST-tagged FLT4 (800 to 1297 residues) expressed in baculovirus by ELISA
# [12] = system: Platelet-derived growth factor receptor alpha (Homo sapiens), P16234 [T674I]
# Description: Inhibition of TEL-fused PDGFRalpha T674I mutant (unknown origin) expressed in mouse BAF3 cells assessed as cell growth inhibition after 72 hrs by cell titer-glo assay
# [13] = target: Proto-oncogene tyrosine-protein kinase receptor Ret (Homo sapiens, UniProt P07949); assay: Inhibition of human GST-tagged RET (658 to 1114 residues) expressed in baculovirus by ELISA
# [14] = Tmax in Sprague-Dawley rat at 2 mg/kg, iv up to 24 hrs post dose by LC/MS/MS analysis; format: ADME, organism-based; conditions: in vivo
# [15] = system: Mast/stem cell growth factor receptor Kit (Homo sapiens), P10721 [A829P]
# Description: Inhibition of TEL-fused cKIT A829P mutant (unknown origin) expressed in mouse BAF3 cells assessed as cell growth inhibition after 72 hrs by cell titer-glo assay
# [16] = Half life in Sprague-Dawley rat at 25 mg/kg, ip up to 24 hrs post dose by LC/MS/MS analysis; format: ADME, organism-based; conditions: in vivo
# [17] = AUC (0 to infinity) in Sprague-Dawley rat at 25 mg/kg, ip up to 24 hrs post dose by LC/MS/MS analysis; format: ADME, organism-based; parameters: dose 25 mg/kg, time infinity, route intraperitoneal; conditions: in vivo
# [18] = Antiproliferative activity against mouse BAF3 cells assessed as cell growth inhibition after 72 hrs by cell titer-glo assay; format: cell-based
# [19] = target: Platelet-derived growth factor receptor beta (Homo sapiens, UniProt P09619); assay: Inhibition of human His-tagged PDGFRbeta (558 to 1106 residues) expressed in baculovirus by ELISA
# BaF3 = assay: Antitumor activity against mouse BAF3 cells harboring TEL-cKIT-T670I mutant allografted in nu/nu mouse assessed as tumor growth inhibition at 25 mg/kg, ip administered daily for 11 days relative to control; format: functional; conditions: 264 h, read-out: TGI
# [20] = target: Vascular endothelial growth factor receptor 2 (Homo sapiens, UniProt P35968)
# Description: Inhibition of VEGFR2 (unknown origin) using FAM-labeled peptide as substrate preincubated for 10 mins followed by substrate addition in presence of ATP by mobility shift assay
# [21] = AUC (0 to t) in Sprague-Dawley rat at 2 mg/kg, iv up to 24 hrs post dose by LC/MS/MS analysis; format: ADME, organism-based; parameters: dose 2 mg/kg, time < 24 hr, route intravenous; conditions: in vivo
# [22] = Volume of distribution at steady state in Sprague-Dawley rat at 2 mg/kg, iv up to 24 hrs post dose by LC/MS/MS analysis; format: ADME, organism-based; conditions: in vivo, read-out: Vdss
# [23] = MRT (0 to t) in Sprague-Dawley rat at 100 mg/kg, ip up to 24 hrs post dose by LC/MS/MS analysis; format: ADME, organism-based; conditions: in vivo
# [24] = Apparent clearance in Sprague-Dawley rat at 2 mg/kg, iv up to 24 hrs post dose by LC/MS/MS analysis; format: ADME, organism-based; conditions: in vivo, read-out: CL(app) (converted)
# [25] = MRT (0 to t) in Sprague-Dawley rat at 2 mg/kg, iv up to 24 hrs post dose by LC/MS/MS analysis; format: ADME, organism-based; conditions: in vivo
# [26] = system: Mast/stem cell growth factor receptor Kit (Homo sapiens), P10721 [N822K]
# Description: Inhibition of TEL-fused cKIT N822K mutant (unknown origin) expressed in mouse BAF3 cells assessed as cell growth inhibition after 72 hrs by cell titer-glo assay
# GIST882 = assay: Antiproliferative activity against human GIST882 cells assessed as cell growth inhibition after 72 hrs by cell titer-glo assay; format: functional; conditions: GIST882, 72 h
# [27] = MRT (0 to infinity) in Sprague-Dawley rat at 25 mg/kg, ip up to 24 hrs post dose by LC/MS/MS analysis; format: ADME, organism-based; conditions: in vivo
# MEG-01 = assay: Antiproliferative activity against human MEG01 cells assessed as cell growth inhibition after 72 hrs by cell titer-glo assay; format: functional; conditions: MEG-01, 72 h
# [28] = target: Voltage-gated inwardly rectifying potassium channel KCNH2 (Homo sapiens, UniProt Q12809); assay: Inhibition of human ERG expressed in CHO cells by whole cell patch clamp assay; format: cell-based
# [29] = Cmax in Sprague-Dawley rat at 2 mg/kg, iv up to 24 hrs post dose by LC/MS/MS analysis; format: ADME, organism-based; parameters: dose 2 mg/kg, route intravenous; conditions: in vivo
# [30] = system: Mast/stem cell growth factor receptor Kit (Homo sapiens), P10721 [V654A]
# Description: Inhibition of TEL-fused cKIT V654A mutant (unknown origin) expressed in mouse BAF3 cells assessed as cell growth inhibition after 72 hrs by cell titer-glo assay
# [31] = target: Tyrosine-protein kinase ABL2 (Homo sapiens) (UniProt P42684); assay: Inhibition of human wild type ABL2 (248 to 542 residues) expressed in bacterial expression system assessed as activity remaining at 1 uM by KINOMEscan assay relative to control
# GISTT1 [32] = assay: Antiproliferative activity against human GISTT1 cells assessed as cell growth inhibition after 72 hrs by cell titer-glo assay; format: functional; conditions: GISTT1, 72 h
# [33] = system: Mast/stem cell growth factor receptor Kit (Homo sapiens), P10721 [V559D,V654A]
# [34] = Half life in rat liver microsomes at 1 uM in presence of NADPH by LC-MS/MS; format: ADME, microsome
# [35] = Antiproliferative activity against CHO cells assessed as cell growth inhibition after 72 hrs by cell titer-glo assay; format: cell-based, Cricetulus griseus; conditions: chinese hamster
# KU812 cell line = assay: Antiproliferative activity against human KU812 cells assessed as cell growth inhibition after 72 hrs by cell titer-glo assay; format: functional; conditions: KU812, 72 h
# Sequence of Platelet-derived growth factor receptor alpha (P16234 whole entry): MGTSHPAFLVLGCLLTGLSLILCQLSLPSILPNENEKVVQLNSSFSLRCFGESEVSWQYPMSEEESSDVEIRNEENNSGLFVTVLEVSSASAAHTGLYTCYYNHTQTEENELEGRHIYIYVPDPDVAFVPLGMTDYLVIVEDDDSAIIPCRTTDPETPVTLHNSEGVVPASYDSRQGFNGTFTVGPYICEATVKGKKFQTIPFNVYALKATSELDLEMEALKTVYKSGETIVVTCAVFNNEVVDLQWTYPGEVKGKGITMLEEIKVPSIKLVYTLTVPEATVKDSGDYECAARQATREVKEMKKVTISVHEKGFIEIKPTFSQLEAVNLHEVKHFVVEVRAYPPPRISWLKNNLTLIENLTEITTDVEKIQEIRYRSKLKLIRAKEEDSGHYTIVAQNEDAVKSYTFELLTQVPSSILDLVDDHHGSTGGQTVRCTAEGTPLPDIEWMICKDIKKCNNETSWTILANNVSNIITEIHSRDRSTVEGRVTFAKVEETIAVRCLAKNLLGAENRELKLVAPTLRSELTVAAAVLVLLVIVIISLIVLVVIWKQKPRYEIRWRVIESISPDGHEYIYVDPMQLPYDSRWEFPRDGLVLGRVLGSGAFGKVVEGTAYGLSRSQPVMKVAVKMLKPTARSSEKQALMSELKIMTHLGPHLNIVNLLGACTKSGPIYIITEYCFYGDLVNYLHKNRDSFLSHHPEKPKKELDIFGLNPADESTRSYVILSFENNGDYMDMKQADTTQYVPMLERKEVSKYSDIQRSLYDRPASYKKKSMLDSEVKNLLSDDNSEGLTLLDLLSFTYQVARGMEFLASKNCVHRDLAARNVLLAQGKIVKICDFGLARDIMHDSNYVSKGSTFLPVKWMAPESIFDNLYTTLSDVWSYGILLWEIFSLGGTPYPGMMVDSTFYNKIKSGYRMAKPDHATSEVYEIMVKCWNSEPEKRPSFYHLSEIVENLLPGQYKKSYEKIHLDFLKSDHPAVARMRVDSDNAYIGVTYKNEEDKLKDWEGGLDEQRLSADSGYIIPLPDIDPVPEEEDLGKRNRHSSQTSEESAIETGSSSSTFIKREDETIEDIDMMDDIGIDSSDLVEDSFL
# Sequence of Mast/stem cell growth factor receptor Kit (Homo sapiens), P10721 [N822K] (P10721 whole entry N822K): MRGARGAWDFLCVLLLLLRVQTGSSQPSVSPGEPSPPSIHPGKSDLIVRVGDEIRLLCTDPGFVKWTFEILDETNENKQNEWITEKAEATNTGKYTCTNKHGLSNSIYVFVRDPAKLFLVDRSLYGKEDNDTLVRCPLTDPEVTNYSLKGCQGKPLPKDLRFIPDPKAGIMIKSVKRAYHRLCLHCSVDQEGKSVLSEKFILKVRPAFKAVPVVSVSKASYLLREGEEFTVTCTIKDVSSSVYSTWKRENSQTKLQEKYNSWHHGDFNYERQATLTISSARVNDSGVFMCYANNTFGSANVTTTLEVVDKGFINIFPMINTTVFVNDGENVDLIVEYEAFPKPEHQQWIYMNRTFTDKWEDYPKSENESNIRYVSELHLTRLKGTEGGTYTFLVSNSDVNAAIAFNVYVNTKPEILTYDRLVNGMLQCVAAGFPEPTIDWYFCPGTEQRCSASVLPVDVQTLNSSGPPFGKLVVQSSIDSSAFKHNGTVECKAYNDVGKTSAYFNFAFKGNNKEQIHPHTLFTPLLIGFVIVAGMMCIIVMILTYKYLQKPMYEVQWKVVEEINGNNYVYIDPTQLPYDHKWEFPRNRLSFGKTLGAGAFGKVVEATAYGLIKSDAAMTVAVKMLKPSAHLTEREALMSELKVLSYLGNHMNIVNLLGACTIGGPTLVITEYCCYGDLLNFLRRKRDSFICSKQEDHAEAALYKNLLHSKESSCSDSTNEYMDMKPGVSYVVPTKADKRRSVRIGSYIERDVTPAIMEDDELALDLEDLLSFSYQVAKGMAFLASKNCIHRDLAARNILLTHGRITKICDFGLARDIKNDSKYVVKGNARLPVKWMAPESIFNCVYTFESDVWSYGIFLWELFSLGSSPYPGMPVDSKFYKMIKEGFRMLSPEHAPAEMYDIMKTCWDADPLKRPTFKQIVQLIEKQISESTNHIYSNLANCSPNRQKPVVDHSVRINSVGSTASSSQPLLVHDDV
# Sequence of Mast/stem cell growth factor receptor Kit (Homo sapiens), P10721 [L576P] (P10721 whole entry L576P): as the sequence (P10721 whole entry N822K) above, with L576P, K822N counted along it
# Sequence of Tyrosine-protein kinase ABL2 (Homo sapiens) (P42684 whole entry, the tested form may be a part): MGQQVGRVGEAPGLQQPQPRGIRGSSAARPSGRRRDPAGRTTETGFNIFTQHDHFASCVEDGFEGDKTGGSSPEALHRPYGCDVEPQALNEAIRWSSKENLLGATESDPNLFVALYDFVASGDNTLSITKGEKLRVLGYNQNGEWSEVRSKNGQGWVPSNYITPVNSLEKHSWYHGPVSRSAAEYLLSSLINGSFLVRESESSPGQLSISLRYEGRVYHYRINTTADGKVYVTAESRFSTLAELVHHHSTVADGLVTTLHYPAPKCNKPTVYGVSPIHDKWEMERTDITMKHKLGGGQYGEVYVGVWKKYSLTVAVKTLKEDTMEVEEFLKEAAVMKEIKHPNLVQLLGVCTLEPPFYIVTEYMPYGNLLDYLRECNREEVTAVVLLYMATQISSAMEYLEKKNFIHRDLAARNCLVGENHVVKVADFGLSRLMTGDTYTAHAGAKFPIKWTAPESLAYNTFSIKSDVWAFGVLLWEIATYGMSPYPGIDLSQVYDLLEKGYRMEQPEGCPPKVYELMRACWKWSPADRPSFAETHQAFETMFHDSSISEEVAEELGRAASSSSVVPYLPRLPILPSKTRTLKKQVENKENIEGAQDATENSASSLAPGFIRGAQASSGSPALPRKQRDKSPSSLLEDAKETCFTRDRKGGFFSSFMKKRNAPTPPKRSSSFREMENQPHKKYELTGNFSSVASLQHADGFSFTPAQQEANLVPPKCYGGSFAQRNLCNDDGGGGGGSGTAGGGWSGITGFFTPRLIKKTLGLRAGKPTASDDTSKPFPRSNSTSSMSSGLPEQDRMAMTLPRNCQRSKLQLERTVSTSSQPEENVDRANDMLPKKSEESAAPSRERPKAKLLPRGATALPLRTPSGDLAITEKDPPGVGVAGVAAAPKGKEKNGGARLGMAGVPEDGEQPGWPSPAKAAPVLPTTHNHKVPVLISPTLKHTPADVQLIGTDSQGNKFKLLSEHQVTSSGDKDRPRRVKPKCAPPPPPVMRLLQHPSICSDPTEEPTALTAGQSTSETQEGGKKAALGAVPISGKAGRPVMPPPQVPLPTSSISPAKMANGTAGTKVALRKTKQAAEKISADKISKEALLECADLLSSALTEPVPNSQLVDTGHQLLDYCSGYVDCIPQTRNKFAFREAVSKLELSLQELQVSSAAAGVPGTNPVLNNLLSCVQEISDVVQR
smiles,measurement,setting,value
Cc1cc(NC(=O)Nc2ccc(-c3ccnc4[nH]nc(C)c34)cc2)ccc1N1CCOCC1,IC50,[1],160 nM
same,inhibition in vivo at 100 mg/kg,GISTT1 [2],81.5%
same,IC50,[3],7.2 nM
same,AUC(0-inf),[4],5390 ng·h/mL
same,IC50,[5],2.4 nM
same,GI50,K562,> 10 µM
same,MRT inf,[6],14.8 h
same,IC50,[7],2 nM
same,GI50,[8],10.6 nM
same,GI50,[9],> 10 µM
same,GI50,[10],39.2 nM
same,IC50,[11],72 nM
same,GI50,[12],135 nM
same,IC50,[13],> 1000 nM
same,Tmax,[14],4.98 min
same,GI50,[15],11.6 nM
same,half-life,[16],305 min
same,AUC(0-inf),[17],713 ng·h/mL
same,GI50 at 72 h,[18],4.03 µM
same,IC50,[19],< 1 nM
same,inhibition in vivo at 25 mg/kg,BaF3,16.8%
same,IC50,[20],2280 nM
same,AUC(0-t) at 24 h,[21],2240 ng·h/mL
same,Vd,[22],0.97 L/kg
same,MRT last at 24 h,[23],7.99 h
same,clearance,[24],15.8 mL/min/kg
same,MRT last at 24 h,[25],1.13 h
same,GI50,[26],11.1 nM
same,GI50,GIST882,< 3 nM
same,MRT inf,[27],6.48 h
same,GI50,MEG-01,9.09 µM
same,IC50,[28],> 40 µM
same,Cmax,[29],1890 ng/mL
same,GI50,[30],136 nM
same,Activity,[31],> 35%
same,GI50,GISTT1 [32],< 3 nM
same,GI50,[33],330 nM
same,half-life at 1 µM,[34],46.8 min
same,GI50 at 72 h,[35],> 10 µM
same,GI50,KU812 cell line,> 10 µM

# Source: ChEMBL document CHEMBL4011618, “Discovery of Potent, Selective Stem Cell Factor Receptor/Platelet Derived Growth Factor Receptor Alpha (c-KIT/PDGFRα) Dual Inhibitor for the Treatment of Imatinib-Resistant Gastrointestinal Stromal Tumors (GISTs)” (J Med Chem, 2017)
